Assay results published in PubChem BioAssay (NCI).
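Exposure lasted 48 hours, with cells grown in 96-well plates and compounds tested at five concentrations. TGI: total growth inhibition.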

Columns and labels:
Experiment in all cases: NCI tumour cell line growth inhibition, 48 h
KM12 colon = tested on: KM12 colon
K-562 leukemia = tested on: K-562 leukemia
M14 melanoma = tested on: M14 melanoma
MCF7 breast = tested on: MCF7 breast
ACHN renal = tested on: ACHN renal
RPMI-8226 leukemia = tested on: RPMI-8226 leukemia
U251 CNS = tested on: U251 CNS
MDA-MB-435 = tested on: MDA-MB-435
SN12C renal = tested on: SN12C renal
SF-268 CNS = tested on: SF-268 CNS
OVCAR-5 ovarian = tested on: OVCAR-5 ovarian
RXF 393 renal = tested on: RXF 393 renal
BT-549 breast = tested on: BT-549 breast
A549 NSCLC = tested on: A549 NSCLC
OVCAR-3 ovarian = tested on: OVCAR-3 ovarian
HOP-62 NSCLC = tested on: HOP-62 NSCLC
NCI-H522 lung = tested on: NCI-H522 lung
HCT-116 colon = tested on: HCT-116 colon
MOLT-4 leukemia = tested on: MOLT-4 leukemia
786-0 renal = tested on: 786-0 renal
MALME-3M melanoma = tested on: MALME-3M melanoma
SF-295 CNS = tested on: SF-295 CNS
HCT-15 colon = tested on: HCT-15 colon
EKVX NSCLC = tested on: EKVX NSCLC
TK-10 renal = tested on: TK-10 renal
OVCAR-8 ovarian = tested on: OVCAR-8 ovarian
HCC-2998 colon = tested on: HCC-2998 colon
SK-OV-3 ovarian = tested on: SK-OV-3 ovarian
UO-31 renal = tested on: UO-31 renal
SNB-75 CNS = tested on: SNB-75 CNS
SF-539 CNS = tested on: SF-539 CNS
SK-MEL-28 melanoma = tested on: SK-MEL-28 melanoma
SK-MEL-5 melanoma = tested on: SK-MEL-5 melanoma
CCRF-CEM leukemia = tested on: CCRF-CEM leukemia
NCI-H23 lung = tested on: NCI-H23 lung
LOX IMVI melanoma = tested on: LOX IMVI melanoma
HL-60(TB) leukemia = tested on: HL-60(TB) leukemia
UACC-62 melanoma = tested on: UACC-62 melanoma
SK-MEL-2 melanoma = tested on: SK-MEL-2 melanoma
PC-3 prostate = tested on: PC-3 prostate
NCI-H460 lung = tested on: NCI-H460 lung
OVCAR-4 ovarian = tested on: OVCAR-4 ovarian
SNB-19 CNS = tested on: SNB-19 CNS
HS 578T breast = tested on: HS 578T breast
MDA-N = tested on: MDA-N
CAKI-1 renal = tested on: CAKI-1 renal
SR leukemia = tested on: SR leukemia
COLO 205 colon = tested on: COLO 205 colon
NCI/ADR-RES ovarian = tested on: NCI/ADR-RES ovarian
UACC-257 melanoma = tested on: UACC-257 melanoma
NCI-H226 lung = tested on: NCI-H226 lung
HT29 colon = tested on: HT29 colon
T-47D breast = tested on: T-47D breast
DU-145 prostate = tested on: DU-145 prostate
IGROV1 ovarian = tested on: IGROV1 ovarian
A498 renal = tested on: A498 renal
MDA-MB-231 breast = tested on: MDA-MB-231 breast
SW-620 colon = tested on: SW-620 colon
HOP-92 NSCLC = tested on: HOP-92 NSCLC

Measured: TGI

COC(=O)C1CC2C=CC1N(C(=O)OCc1ccccc1)C2 (stereo not given)
43.5 µM: NCI-H522 lung
not listed: HOP-92 NSCLC
> 100 µM: all other assays above

CC1CCC2(NC1)OC1CC3C4CCC5CC(OC6OC(CO)C(OC7OC(CO)C(O)C(OC8OCC(O)C(O)C8O)C7OC7OC(CO)C(O)C(O)C7O)C(O)C6O)CCC5(C)C4CCC3(C)C1C2C (stereo not given)
6.3 µM: MCF7 breast
1.02 µM: MDA-N
5.97 µM: BT-549 breast
4.01 µM: RPMI-8226 leukemia
2.11 µM: CAKI-1 renal
2.65 µM: UACC-62 melanoma
3.4 µM: TK-10 renal | MDA-MB-231 breast
3.93 µM: NCI/ADR-RES ovarian
2.32 µM: SF-295 CNS
3.26 µM: HT29 colon
4.16 µM: NCI-H460 lung
3.32 µM: SN12C renal | SF-268 CNS
2.83 µM: MALME-3M melanoma
3.72 µM: NCI-H226 lung
2.69 µM: UO-31 renal
3.75 µM: SK-MEL-2 melanoma | A498 renal
3.02 µM: M14 melanoma
3.56 µM: SNB-75 CNS | SK-MEL-5 melanoma
> 100 µM: LOX IMVI melanoma | SR leukemia
3.38 µM: SNB-19 CNS
4 µM: COLO 205 colon
3.85 µM: HS 578T breast
2.78 µM: HCC-2998 colon
> 21.2 µM: K-562 leukemia
4.82 µM: ACHN renal
3.12 µM: OVCAR-3 ovarian | NCI-H522 lung
4.99 µM: A549 NSCLC
> 22 µM: CCRF-CEM leukemia
3.68 µM: HOP-62 NSCLC
3.1 µM: OVCAR-4 ovarian
6.98 µM: HCT-116 colon
3.03 µM: MDA-MB-435
2.73 µM: OVCAR-5 ovarian
4.93 µM: HL-60(TB) leukemia
1.86 µM: IGROV1 ovarian
4.64 µM: KM12 colon
3.07 µM: U251 CNS
3.94 µM: SW-620 colon
3.46 µM: SK-MEL-28 melanoma | DU-145 prostate
2.37 µM: EKVX NSCLC
1.05 µM: PC-3 prostate
4.65 µM: UACC-257 melanoma
5.07 µM: T-47D breast

CN1CCN(CC(=O)Nc2cccc3ccccc23)CC1
> 31.6 µM: HT29 colon
not listed: SNB-75 CNS
> 100 µM: all other assays above

CCCCCCc1nn2c(-c3ccncc3)nnc2s1
2.89 µM: UO-31 renal
not listed: SNB-75 CNS
> 10 µM: all other assays above

N=C(N)SCCc1ccncc1
not listed: NCI-H522 lung | MALME-3M melanoma | HCC-2998 colon
> 100 µM: all other assays above
